Measurements as given in the NIST ThermoML archive (doi:10.1021/je9005618).
± gives the expanded uncertainty stated by the source.

What was measured:
[1] = refractive index (Na D-line) (dimensionless); details: 101.33 kPa, Liquid, Standard Abbe refractometry
[2] = 101.33 kPa, Liquid; for speed of sound: Pulse-echo method; for mass density: Vibrating tube method

speed of sound ([2]; 278.15 K)	mass density ([2]; 278.15 K)	speed of sound ([2]; 288.15 K)	mass density ([2]; 288.15 K)	speed of sound ([2]; 298.15 K)	mass density ([2]; 298.15 K)	speed of sound ([2]; 308.15 K)	mass density ([2]; 308.15 K)	speed of sound ([2]; 318.15 K)	mass density ([2]; 318.15 K)	speed of sound ([2]; 328.15 K)	mass density ([2]; 328.15 K)	Structure (SMILES)	refractive index ([1]; 288.15 K)	refractive index ([1]; 298.15 K)	refractive index ([1]; 308.15 K)	refractive index ([1]; 318.15 K)	refractive index ([1]; 328.15 K)
												CCn1cc[n+](C)c1.O=S(=O)([O-])C(F)(F)F [1-ethyl-3-methylimidazolium trifluoromethanesulfonate]	1.43599 ± 0.00051	1.4332 ± 0.00051	1.4304 ± 0.00051	1.42767 ± 0.00051	1.42494 ± 0.00051
1231 ± 1.2 m/s	918.5 ± 0.23 kg/m3	1185.2 ± 1.2 m/s	906.48 ± 0.23 kg/m3	1140 ± 1.2 m/s	894.33 ± 0.23 kg/m3	1095.3 ± 1.2 m/s	882.02 ± 0.23 kg/m3	1051 ± 1.1 m/s	869.52 ± 0.23 kg/m3	1007.4 ± 1.1 m/s	856.85 ± 0.23 kg/m3	CCOC(C)=O [ethyl acetate]	1.37519 ± 0.00037	1.36994 ± 0.00037	1.3646 ± 0.00037	1.35919 ± 0.00037	1.35368 ± 0.00037
1243.5 ± 0.81 m/s	953.04 ± 0.09 kg/m3	1196.8 ± 0.8 m/s	940.12 ± 0.1 kg/m3	1150.7 ± 0.78 m/s	927.01 ± 0.1 kg/m3	1104.7 ± 0.77 m/s	913.68 ± 0.11 kg/m3	1059.2 ± 0.75 m/s	900.13 ± 0.11 kg/m3			COC(C)=O [methyl ethanoate]	1.36414 ± 0.00033	1.35881 ± 0.00033	1.35367 ± 0.00033	1.34823 ± 0.00033	

Structure (SMILES)	speed of sound ([2]; 278.15 K)	mass density ([2]; 278.15 K)	speed of sound ([2]; 288.15 K)	mass density ([2]; 288.15 K)	speed of sound ([2]; 298.15 K)	mass density ([2]; 298.15 K)	speed of sound ([2]; 308.15 K)	mass density ([2]; 308.15 K)	speed of sound ([2]; 318.15 K)	mass density ([2]; 318.15 K)	speed of sound ([2]; 328.15 K)	mass density ([2]; 328.15 K)	refractive index ([1]; 288.15 K)	refractive index ([1]; 298.15 K)	refractive index ([1]; 308.15 K)	refractive index ([1]; 318.15 K)	refractive index ([1]; 328.15 K)
CC(C)=O [acetone]	1256.5 ± 1.2 m/s	807.41 ± 0.24 kg/m3	1210.7 ± 1.2 m/s	796.14 ± 0.24 kg/m3	1165 ± 1.2 m/s	784.76 ± 0.24 kg/m3	1118.5 ± 1.2 m/s	773.21 ± 0.24 kg/m3	1073.7 ± 1.1 m/s	761.47 ± 0.24 kg/m3			1.36146 ± 0.001	1.35597 ± 0.001	1.35054 ± 0.001	1.34491 ± 0.001	
